Laboratory results as given in patent publication US5447720A, “Composition and method for treatment of hemoglobinopathies” (Fadulu; Sunday O., priority 1993, dated 1995).

Assays:
[1] = tested on: sickling; conditions: words; cited from earlier work
[2] = tested on: HbF; conditions: sickle cell patients; words; cited from earlier work
[3] = tested on: sickling; experiment: Anti-sickling activity of acid components (test not specified); conditions: words

Molecule	anti-sickling activity of less polar acids [3]	also measured
O=C(O)c1ccccc1CO [2-hydroxymethylbenzoic acid]		in vitro anti-sickling effect (literature) [1]: in vitro nonsickling characteristics
Nc1ncn([C@@H]2O[C@H](CO)[C@@H](O)[C@H]2O)c(=O)n1 [5-azacytidine]		effect on HbF levels (literature) [2]: increased HbF levels
CCCCC/C=C\C/C=C\CCCCCCCC(=O)O [linoleic]	little if any anti-sickling activity	
CC/C=C\C/C=C\C/C=C\CCCCCCCC(=O)O [linolenic]	little if any anti-sickling activity	
CCCCCCCC/C=C\CCCCCCCC(=O)O [oleic acids]	little if any anti-sickling activity	
CCCCCCCCCCCCCCCCCC(=O)O [stearic]	little if any anti-sickling activity	
arginine butyrate		effect on HbF levels (literature) [2]: rapid stimulation of the HbF
